Measured values published in patent US6461997B1, “Triazole sulfones having herbicidal activity” (Monsanto Technology LLC, priority 1999, dated 2002).

Tests used:
LOLMG (annual ryegrass) = experiment: Pre-emergence herbicidal activity, cool season; assay type: in vivo, Lolium multiflorum; details: GR80 = lowest tested rate (300, 100, 30, 10 g/ha) with 80% or greater inhibition; approx. 14 days after treating; 18/13° C.
Procedure: (§1) Tables 5 to 8 summarize results of tests conducted as described below to determine the pre-emergence herbicidal activity, in the form of a GR80 value, of illustrative compounds of this invention. […] Compounds of the invention were typically applied at rates of 300, 100, 30, and 10 g/ha. Where herbicidal activity was evident but 80% inhibition was not achieved at the highest rate tested, an asterisk (*) is shown in the following tables.
(§2) The pre-emergence tests were conducted by the following procedure. Topsoil was sieved to pass through a 1.27 cm screen. Fertilizer was added to the topsoil and the mixture was then sterilized by heating. The topsoil mixture was placed in a pot and compacted to a depth of 1.0 to 1.25 cm from the top of the pot. Seeds of each of several monocotyledonous and dicotyledonous annual plant species were placed on top of the soil. Additional soil was subsequently placed over the seeds to level-fill the pot. A known amount of each test compound dissolved or suspended in an appropriate organic solvent was diluted with a 50:50 mix of acetone and water and applied to the surface of the soil. After treatment the plants were placed in a greenhouse where they received 0.64 cm of overhead irrigation. All subsequent watering consisted of a light overhead mist and/or subirrigation as needed for germination and growth. Tables 5 and 6 below relate to warm season plant species which were placed after pre-emergence treatment in a greenhouse with a 30/21° C. day/night temperature regime. Tables 7 and 8 below relates to cool season plant species placed after pre-emergence treatment in a greenhouse or growth chamber with an 18/13° C. day/night temperature regime.
(§3) Approximately 14 days after planting and treating, the plants were observed and herbicidal efficacy recorded as percent inhibition by comparison with untreated plants.
(§4) The plant species usually regarded as weeds which were utilized in the tests are identified in the tables below according to the following legend, in which “d” indicates a dicotyledonous species and “m” a monocotyledonous species. All monocotyledonous species included in the tests herein are grasses.

SETVI (green foxtail) = experiment: Pre-emergence herbicidal activity, cool season; assay type: in vivo, Setaria viridis; details: GR80 = lowest tested rate (300, 100, 30, 10 g/ha) with 80% or greater inhibition; approx. 14 days after treating; 18/13° C.
Summary of the method: (§5)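 GR80 values derive from percent inhibition relative to untreated plants, read roughly 14 days after sowing and pre-emergence soil-surface treatment (compound in 50:50 acetone/water; rates typically 10, 30, 100, 300 g/ha). Warm-season weeds grew at 30/21° C day/night, cool-season ones at 18/13° C; an asterisk marks activity without reaching 80% at the highest rate.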

POLCO (wild buckwheat) = experiment: Pre-emergence herbicidal activity, cool season; assay type: in vivo, Polygonum convolvulus; details: lowest tested rate with 80% or greater inhibition; rates 300, 100, 30, 10 g/ha; about 14 days
Summary of the method: (§6)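 Activity is expressed as the rate giving 80% inhibition, with 300, 100, 30 and 10 g/ha typically tested. An asterisk marks activity short of 80% at the top rate. Warm-season grasses were held at 30/21 °C; cool-season blackgrass and wild buckwheat at 18/13 °C; scoring at about 14 days.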

SINAR (wild mustard) = experiment: Pre-emergence herbicidal activity, cool season; assay type: in vivo, Sinapis arvensis; details: lowest tested rate with 80% or greater inhibition; rates 300, 100, 30, 10 g/ha; about 14 days
Summary of the method: as §5

[1] = tested on: VERPE (creeping speedwell); experiment: Pre-emergence herbicidal activity, cool season; assay type: in vivo, Veronica persicaria; details: lowest tested rate with 80% or greater inhibition; rates 300, 100, 30, 10 g/ha; about 14 days
Summary of the method: as §5

[2] = tested on: LAMPU (purple deadnettle); experiment: Pre-emergence herbicidal activity, cool season; assay type: in vivo, Lamium purpureum; details: lowest tested rate with 80% or greater inhibition; rates 300, 100, 30, 10 g/ha; about 14 days
Summary of the method: as §5

ALOMY (blackgrass) = experiment: Pre-emergence herbicidal activity, cool season; assay type: in vivo, Alopecurus myosuroides; details: GR80 = lowest tested rate (300, 100, 30, 10 g/ha) with 80% or greater inhibition; approx. 14 days after treating; 18/13° C.
Summary of the method: as §6

AMARE (redroot pigweed) = experiment: Pre-emergence herbicidal activity, warm season; assay type: in vivo, Amaranthus retroflexus; details: GR80 = lowest tested rate (300, 100, 30, 10 g/ha) with 80% or greater inhibition; approx. 14 days after treating; 30/21° C.
Procedure: as §1, §2, §3, §4

STEME (common chickweed) = experiment: Pre-emergence herbicidal activity, cool season; assay type: in vivo, Stellaria media; details: lowest tested rate with 80% or greater inhibition; rates 300, 100, 30, 10 g/ha; about 14 days
Summary of the method: as §5

[3] = tested on: AGSST (creeping bentgrass); experiment: Pre-emergence herbicidal activity, cool season; assay type: in vivo, Agrostis stolonifera; details: GR80 = lowest tested rate (300, 100, 30, 10 g/ha) with 80% or greater inhibition; approx. 14 days after treating; 18/13° C.
Summary of the method: as §5

BROTE (downy brome) = experiment: Pre-emergence herbicidal activity, cool season; assay type: in vivo, Bromus tectorum; details: GR80 = lowest tested rate (300, 100, 30, 10 g/ha) with 80% or greater inhibition; approx. 14 days after treating; 18/13° C.
Procedure: as §1, §2, §3, §4

DIGSA (large crabgrass) = experiment: Pre-emergence herbicidal activity, warm season; assay type: in vivo, Digitaria sanguinalis; details: GR80 = lowest tested rate (300, 100, 30, 10 g/ha) with 80% or greater inhibition; approx. 14 days after treating; 30/21° C.
Summary of the method: as §6

[4] = tested on: PANMI (wild proso millet); experiment: Pre-emergence herbicidal activity, warm season; assay type: in vivo, Panicum miliaceum; details: GR80 = lowest tested rate (300, 100, 30, 10 g/ha) with 80% or greater inhibition; approx. 14 days after treating; 30/21° C.
Summary of the method: as §6

[5] = tested on: GALAP (catchweed bedstraw); experiment: Pre-emergence herbicidal activity, cool season; assay type: in vivo, Galium aparine; details: lowest tested rate with 80% or greater inhibition; rates 300, 100, 30, 10 g/ha; about 14 days
Summary of the method: as §5

SASKR (russian thistle) = experiment: Pre-emergence herbicidal activity, cool season; assay type: in vivo, Salsola kali; details: lowest tested rate with 80% or greater inhibition; rates 300, 100, 30, 10 g/ha; about 14 days
Summary of the method: as §5

[6] = tested on: CIRAR (canada thistle (seedling)); experiment: Pre-emergence herbicidal activity, warm season; assay type: in vivo, Cirsium arvense; details: GR80 = lowest tested rate (300, 100, 30, 10 g/ha) with 80% or greater inhibition; approx. 14 days after treating; 30/21° C.
Procedure: as §1, §2, §3, §4

SETFA (giant foxtail) = experiment: Pre-emergence herbicidal activity, warm season; assay type: in vivo, Setaria faberi; details: GR80 = lowest tested rate (300, 100, 30, 10 g/ha) with 80% or greater inhibition; approx. 14 days after treating; 30/21° C.
Summary of the method: as §5

[7] = tested on: BRAPP (broadleaf signalgrass); experiment: Pre-emergence herbicidal activity, warm season; assay type: in vivo, Brachiaria platyphylla; details: GR80 = lowest tested rate (300, 100, 30, 10 g/ha) with 80% or greater inhibition; approx. 14 days after treating; 30/21° C.
Summary of the method: as §5

POROL (common purslane) = experiment: Pre-emergence herbicidal activity, warm season; assay type: in vivo, Portulaca oleracea; details: GR80 = lowest tested rate (300, 100, 30, 10 g/ha) with 80% or greater inhibition; approx. 14 days after treating; 30/21° C.
Summary of the method: as §5

PANDI (fall panicum) = experiment: Pre-emergence herbicidal activity, warm season; assay type: in vivo, Panicum dichotomiflorum; details: GR80 = lowest tested rate (300, 100, 30, 10 g/ha) with 80% or greater inhibition; approx. 14 days after treating; 30/21° C.
Procedure: as §1, §2, §3, §4

Structure (SMILES)	Pre-emergence activity (GR80) LOLMG (LOLMG (annual ryegrass))	Pre-emergence activity (GR80) SETVI (SETVI (green foxtail))	Pre-emergence activity GR80, POLCO (POLCO (wild buckwheat))	Pre-emergence activity GR80, SINAR (SINAR (wild mustard))	Pre-emergence activity GR80, VERPE [1]	Pre-emergence activity GR80, LAMPU [2]	Pre-emergence activity (GR80) ALOMY (ALOMY (blackgrass))	Pre-emergence activity (GR80) AMARE (AMARE (redroot pigweed))	Pre-emergence activity GR80, STEME (STEME (common chickweed))	Pre-emergence activity (GR80) AGSST [3]	Pre-emergence activity (GR80) BROTE (BROTE (downy brome))	Pre-emergence activity (GR80) DIGSA (DIGSA (large crabgrass))	Pre-emergence activity (GR80) PANMI [4]	Pre-emergence activity GR80, GALAP [5]	Pre-emergence activity GR80, SASKR (SASKR (russian thistle))	Pre-emergence activity (GR80) CIRAR [6]	Pre-emergence activity (GR80) SETFA (SETFA (giant foxtail))	Pre-emergence activity (GR80) BRAPP [7]	Pre-emergence activity (GR80) POROL (POROL (common purslane))	Pre-emergence activity (GR80) PANDI (PANDI (fall panicum))
COCCN(C)C(=O)n1cnc(S(=O)(=O)C(F)(F)Cl)n1 [Example 88]	300 g/ha	100 g/ha	300 g/ha	30 g/ha	30 g/ha	10 g/ha	300 g/ha	100 g/ha	10 g/ha	100 g/ha	300 g/ha	300 g/ha	300 g/ha	100 g/ha	30 g/ha	–	–	–	–	–
CON(C)C(=O)n1cnc(S(=O)(=O)C(F)(F)C(F)F)n1 [Example 69]	300 g/ha	100 g/ha	100 g/ha	30 g/ha	100 g/ha	[empty]	300 g/ha	–	300 g/ha	–	300 g/ha	–	–	100 g/ha	[empty]	–	–	–	–	–
CON(C)C(=O)n1cnc(S(=O)(=O)C(F)F)n1 [Example 34]	–	300 g/ha	300 g/ha	300 g/ha	300 g/ha	300 g/ha	–	–	[empty]	–	300 g/ha	–	–	[empty]	300 g/ha	–	–	–	–	–
CN(C(=O)n1cnc(S(=O)(=O)C(F)(F)Br)n1)C1CCCCC1 [Example 43]	–	300 g/ha	[empty]	[empty]	300 g/ha	300 g/ha	300 g/ha	–	300 g/ha	100 g/ha	–	–	100 g/ha	300 g/ha	[empty]	300 g/ha	100 g/ha	300 g/ha	300 g/ha	100 g/ha
CN(C)C(=O)n1cnc(S(=O)(=O)C(F)(F)Cl)n1 [Example 85]	100 g/ha	300 g/ha	[empty]	30 g/ha	100 g/ha	100 g/ha	–	–	30 g/ha	100 g/ha	100 g/ha	–	–	[empty]	100 g/ha	–	–	–	–	–
